Source: publication PMC9147958, “Formulation and Evaluation of SNEDDS Loaded with Original Lipophenol for the Oral Route to Prevent Dry AMD and Stragardt’s Disease” (Pharmaceutics, 2022)
Converted amounts (≈) assume the structure as drawn. Like-named read-outs stand apart in the source and are kept apart here.

Columns and labels:
[1] = tested on: ddY mice; settings: cited from earlier work
[2] = Solubility of IP-DHA in PBS, SGF and ISF without enzymes; assay type: physicochemical; settings: for solubility: thermodynamic from solid, n = 3
Method: Solubility was evaluated in PBS (pH 7.4), SGF, and ISF (Table 1) without enzymes (pepsin and pancreatin). An excess of IP-DHA was added for each medium type, followed by mixing using a vortex mixer (Vortex Génie 2) and equilibration at room temperature. Next, the mixtures were centrifuged at 3000 rpm (Sigma centrifuge 2K15) for 15 min. The supernatant from each sample was diluted with methanol. The concentration of IP-DHA in each sample was determined using the µHPLC/MS-MS analysis, as described in Section 2.2.3.

[3] = Log P of IP-DHA; assay type: physicochemical
[4] = Caco-2 permeability; assay type: in vitro ADME; settings: human, Caco-2, pH 6.5/7.4, 10 μM
Method: Caco-2 cells are human intestinal epithelial cells that are derived from a colorectal adenocarcinoma. Cells were seeded at 1 × 10^5 cells/cm^2 in 96-well Multiscreen^TM plates (Millipore). This assay was performed in either the apical-to-basolateral (A–B) or B–A direction. IP-DHA was prepared at 10 μM in HBSS-MES (pH 6.5) or HBSS-HEPES (pH 7.4), with a final DMSO concentration of 1%. The working solution was then centrifuged, and the supernatant was added to the donor side. The assay plate was incubated at 37 °C with gentle shaking for 60 min or 40 min for the A–B or B–A assays, respectively. Samples were aliquoted from the donor side at time zero and from the end point, and from the receiver side at the end point. Samples were analyzed via HPLC-MS/MS, as described in Section 2.2.3.
The apparent permeability coefficient (Papp) in cm/s of IP-DHA was calculated as follows: Papp=VR×CRend/Δt×1/A×CDmind−CRmind where VR is the volume of the receiver chamber. CR(end) is the concentration of IP-DHA in the receiver chamber at the end time point, Δt is the incubation time, A is the surface area of the cell monolayer, and CD(mid) is the calculated mid-point concentration of the test compound on the donor side, which is the mean value of the donor concentration at time 0 min and the donor concentration at the end time point. […]

[5] = Stability on human microsomes; assay type: in vitro ADME; design: dose or concentration left out as unconfirmed; settings: pooled liver microsomes, pH 7.4, 37 °C, NADPH-generating system, read-out: Stability on human microsomes T1/2
Method: The metabolic stability of IP-DHA on human microsomes (microsomes S9, cryopreserved hepatocytes, recombinant CYP, and recombinant UGT) has been evaluated and expressed as percentage of IP-DHA remaining. IP-DHA was pre-incubated with pooled liver microsomes in phosphate buffer (pH 7.4) at 10 mM for 5 min in a 37 °C shaking water bath (IKA® RH basic KT/C). The reaction was initiated using the NADPH-generating system and incubated for 0, 15, 30, 45, and 60 min. The reaction was stopped by transferring the incubation mixture to acetonitrile/methanol (1:3 v/v ratio). Samples were then mixed and centrifuged at 3000 rpm (Sigma centrifuge 2K15) for 20 min to precipitate the protein, and supernatants were collected. IP-DHA concentration was determined using µHPLC-MS/MS analysis, as described in Section 2.2.3. The half-life (T1/2) was estimated from the slope of the initial linear range of the logarithmic curve of the compound remaining (%) vs. time, assuming first-order kinetics.

[6] = Solubility of IP-DHA in SNEDDS excipients; assay type: physicochemical
[7] = IP-DHA stability and solubility in gastric- and intestinal-simulated fluids; assay type: in vitro ADME; design: half-life: dose or concentration left out as unconfirmed
Method: The chemical stability of free IP-DHA and IP-DHA loaded in SNEDDS at 30 mg/mL was evaluated in a gastric and an intestinal environment (Table 1). A total of 150 µL of free IP-DHA (solubilized in MeOH) or SNEDDS-IP-DHA loaded at 30 mg/mL were placed in 20 mL of freshly prepared SGF or ISF under magnetic stirring at 150 rpm in a water bath at 37 °C. Samples were collected at 0, 30, 60, and 90 min for the stability analysis in SGF, or 0, 20, 40, 60, 80, 100, and 120 min for the stability analysis in ISF. A total of 500 µL of the medium was recovered and diluted with 500 µL of MeOH to stop the enzymatic degradation reaction. The samples were centrifuged (Sigma centrifuge 2K15) for 10 min at 15,000 rpm. The supernatant was removed and IP-DHA was quantified as described in Section 2.3.5.

[8] = tested on: ABCA4KO mice; test: Acute light-induced retinal degeneration, electroretinography; assay type: in vivo; settings: 100 mg/kg oral, 60 min before 20,000 Lux white light for 90 min, ERG 5 days later
Method: (§1) Mice between 8 and 16 weeks of age (both sexes), were weighed to adjust the quantity of administered compound for a dosage at 100, 50, or 17 mg/kg. Mice were orally fed with a 22-gauge needle containing SNEDDS or soybean oil as a control vehicle, IP-DHA solubilized in soybean oil (20 mg/mL), and SNEDDS-IP-DHA (30 mg/mL).
(§2) After the mice were dark-adapted (DA) for 24 h, their pupils were dilated with 0.5% tropicamide. The mice were force-fed in the dark 1 h before light exposure. Mice were exposed to constant light (two cool white fluorescent lamps, OSRAM of 26 watts, 1800 lm, a maximum photopic efficiency of ~470 nm, light intensity averaged to 24 mW/cm^2, corresponding to ≈20.000 Lux) for 1.50 h in a white plastic bucket with a fan. Mice were kept in the dark for 5 days before we performed the final retinal evaluations. Throughout the experiment, the ambient temperature was 22 °C, which was identical to that of the breeding box, to avoid an increase in body temperature, which could further damage the retina.
All electrophysiological examinations were conducted using the Visiosystem (SIEM, France). Animals were prepared and anesthetized, and electroretinogram recording (binocular full-field ERG) was performed with cotton electrodes, as previously described.

[9] = tested on: ABCA4KO mice; test: Acute light-induced retinal degeneration, histological analysis; assay type: in vivo; settings: 100 mg/kg oral, acute white light; dark-adapted mice 2.2
Method: as §1, §2
All animals were killed via cervical dislocation. The eyes were rapidly enucleated and fixed in 4% paraformaldehyde for 24 h at 4 °C. Eyecups were embedded in paraffin and cut into 5 μm sagittal sections. […] The thickness of the inner nuclear layer (INL) and the outer nuclear layer (ONL) was measured and expressed in arbitrary units using ImageJ software. […]

[10] = tested on: ABCA4KO (−/−) mouse model; design: method as in PMID 32641711; settings: intravenous route, cited from earlier work
[11] = tested on: retinal cells; design: method as in PMID 27072643; settings: in vitro; cited from earlier work
[12] = design: method as in PMID 27151507; settings: administered dose of 25 mg/kg; cited from earlier work
[13] = tested on: rats; settings: 25 mg/kg/day oral with corn oil, 30 days, 1.5 h/day (1500 Lux); cited from earlier work

CC1=C(/C=C/C(C)=C/C=C/C(C)=C/C=C/C=C(C)/C=C/C=C(C)/C=C/C2=C(C)C(=O)[C@@H](O)CC2(C)C)C(C)(C)C[C@H](O)C1=O [Astaxantin]
Photoreceptor protection ([1]; dissolved in olive oil, 100 mg/kg oral, white light 3 h at 8000 Lux): partially preserve photoreceptors

CC/C=C\C/C=C\C/C=C\C/C=C\C/C=C\C/C=C\CCC(=O)Oc1cc(O)cc(OC(C)C)c1 [IP-DHA, phloroglucinol-isopropyl-DHA]
solubility ([2]; PBS, pH 7.4, aqueous buffer, room temperature, read-out: Solubility in PBS, pH 7.4): 0.0115 ± 0.00153 mg/mL (≈ 0.0241 mM) | BCS classification ([2]; from poor solubility and poor Caco-2 permeability): BCS Class IV | solubility ([2]; pH 1.5, simulated gastric fluid, free IP-DHA, SGF without pepsin, read-out: Solubility in SGF): 0.00739 ± 0.00026 mg/mL (≈ 0.0154 mM) | solubility ([2]; pH 7.4, fassgf or other biorelevant, free IP-DHA, ISF without pancreatin, read-out: Solubility in ISF): 0.0102 ± 0.00012 mg/mL (≈ 0.0213 mM) | logP [3]: > 5 | Papp B→A at 40 min, 10 μM ([4]; 40 min): 0.7 ± 0.05 ×10⁻⁶ cm/s | Papp A→B at 60 min, 10 μM ([4]; 60 min): 1 ± 0.14 ×10⁻⁶ cm/s | half-life [5]: 10 min | solubility ([6]; Labrasol, surfactant, read-out: Solubility of IP-DHA in Labrasol): 46 ± 2.15 mg/mL (≈ 96.1 mM) | solubility ([6]; Phosal 53 MCT, oil or lipid, oil phase, read-out: Solubility of IP-DHA in Phosal 53 MCT): 25.5 ± 3.27 mg/mL (≈ 53.2 mM) | solubility ([6]; Transcutol HP, organic solvent or mixture, co-surfactant, read-out: Solubility of IP-DHA in Transcutol HP): 45 ± 2.16 mg/mL (≈ 94.1 mM) | half-life ([7]; ISF with pancreatin and bile salts, pH 7.4, 37 °C, read-out: T1/2 of IP-DHA in intestinal environment (ISF)): 11 min | Stability of IP-DHA in gastric medium (SGF) ([7]; SGF with pepsin, pH 1.5, 37 °C, up to 90 min): remained stable | a-wave, % of photoreceptor activity remaining vs dark-adapted mice [8]: 42% | b-wave, % of photoreceptor activity remaining vs dark-adapted mice [8]: 39% | INL/ONL ratio of thickness [9]: 0.7 | Protection of photoreceptors ([10]; IP-DHA associated with BSA at 30 mg/kg): 80–85% | Effect on the retinoid visual cycle [10]: did not affect the retinoid visual cycle | Toxicity on retinal cells [11]: absence of the toxicity

CC(=O)N1CCN(c2ccc(N)c(-n3ccnc3)c2)CC1 [NSP-116]
Photoreceptor protection ([1]; suspended in water with 0.5% CMC, 30 mg/kg oral 30 min before white light 8000 Lux for 3 h): effective in protecting photoreceptors | Cmax in plasma [12]: 7000 ng/mL

CC1=C[C@H](O)CC(C)(C)[C@H]1/C=C/C(C)=C/C=C/C(C)=C/C=C/C=C(C)/C=C/C=C(C)/C=C/C1=C(C)C[C@@H](O)CC1(C)C [lutein]
Photoreceptor protection [13]: demonstrated its efficacy for protecting photoreceptors
